The record followed here is ChEMBL document CHEMBL3297666, “Antibacterial inhibitors of Gram-positive thymidylate kinase: structure-activity relationships and chiral preference of a new hydrophobic binding region” (J Med Chem, 2014).

As a reminder, the IC50 is the concentration that gives 50% inhibition. What is called MIC is the smallest concentration in the dilution series that meets the test's criterion for growth inhibition. By logD is commonly meant lipophilicity at a set pH, counting ionised and neutral species.

Data set [1] is described as follows: Retention time of the compound by LC-MS method. It counts as physicochemical.
A short description of data set [2]: Inhibition of Staphylococcus aureus TMK assessed as decrease in ATP production using dTDP and ADP as substrate after 3.5 hrs by luciferin/luciferase based luminescence analysis.
In data set [3] the test system is Staphylococcus aureus. The experiment in a line: Antibacterial activity against Staphylococcus aureus ARC 516 assessed as growth inhibition by broth microdilution method. In kind it is functional. Background: In broth dilution the organism is exposed to a series of concentrations in liquid medium.
In data set [4] the test system is Staphylococcus aureus. The data set is described as follows: Antibacterial activity against methicillin-resistant and quinolone-resistant Staphylococcus aureus ARC 517 assessed as growth inhibition by broth microdilution method. It counts as functional.
The nature of data set [5]: Octanol-sodium phosphate buffer partition coefficient, log D of the compound at pH 7.4 by shake-flask method.

Turning to `CC(C)CC(O)c1ccc(Br)c(F)c1F` (configuration not stated), the Retention_time in data set [1] was 3.24 min. Same read-out and setting: to `Cc1cn([C@H]2CCCN(C(CC(C)C)c3ccc(C#N)c(F)c3F)C2)c(=O)[nH]c1=O` (some centres not stated) belongs 1.93 min.

In data set [1], `Cc1cn([C@H]2CCCN(C(CC(C)C)c3ccc(Br)c(F)c3F)C2)c(=O)[nH]c1=O` (some centres not stated) showed a Retention_time of 3.1 min.

Take `Cc1cn([C@H]2CCCN(Cc3ccc(C(=O)O)c(Oc4cccc(Cl)c4)c3)C2)c(=O)[nH]c1=O`: the IC50 in data set [2] is 73 nM. The MIC in the data set on Staphylococcus aureus [3] and in the data set with Staphylococcus aureus [4] was 32 µg/mL in each case. On to `COc1c(C=O)ccc(Br)c1Oc1cccc(Cl)c1`, for which the Retention_time in data set [1] came out at 3.28 min. Turning to `CCC[C@H](c1ccc(C(=O)O)c(Oc2cccc(Cl)c2)c1)N1CCC[C@H](n2cc(C)c(=O)[nH]c2=O)C1`, the IC50 in data set [2] is 8 nM. Further, the MIC with Staphylococcus aureus [3] and in the data set with Staphylococcus aureus [4] was 1 µg/mL each time. Take `Cc1cn([C@H]2CCCN(Cc3cccc(Oc4cc(F)cc(Cl)c4)c3Cl)C2)c(=O)[nH]c1=O`: the IC50 in data set [2] came out at 779 nM. In addition, the Retention_time in data set [1] is recorded as 2.31 min. On to `Cc1cn([C@H]2CCCN(Cc3cccc(Oc4cccc(Cl)c4)c3C#N)C2)c(=O)[nH]c1=O`, for which, in data set [2], the IC50 is 1190 nM. In data set [1], this compound came in with a Retention_time of 2.16 min. Take `CC[C@@H](c1ccc(C(=O)O)c(Oc2cccc(Cl)c2)c1)N1CCC[C@H](n2cc(C)c(=O)[nH]c2=O)C1`: the IC50 in data set [2] came out at 18 nM. Also, the results for the MIC in the data set with Staphylococcus aureus [3] and in the data set on Staphylococcus aureus [4] were 2 µg/mL and 4 µg/mL, respectively. Moreover, in data set [5], the logD is 0.22. Turning to `Cc1cn([C@H]2CCCN(Cc3cccc(Oc4cc(F)cc(Cl)c4)c3Br)C2)c(=O)[nH]c1=O`, the 50% inhibitory concentration (IC50) in data set [2] was 581 nM. The Retention_time in data set [1] stood at 2.34 min. In the case of `CCOc1c(CN2CCC[C@H](n3cc(C)c(=O)[nH]c3=O)C2)cccc1Oc1cc(F)cc(Cl)c1`, in data set [2], the IC50 amounted to 625 nM. Further, the Retention_time in data set [1] was 2.32 min. For the compound `CCC[C@@H](c1ccc(C(=O)O)c(Oc2cccc(Cl)c2)c1)N1CCC[C@H](n2cc(C)c(=O)[nH]c2=O)C1`, the IC50 in data set [2] was 18 nM. The MIC in the data set on Staphylococcus aureus [3] and in the data set on Staphylococcus aureus [4] was 4 µg/mL each time.

In data set [1], `CCC(c1ccc(Br)c(Oc2cccc(Cl)c2)c1OC)N1CCC[C@H](n2cc(C)c(=O)[nH]c2=O)C1` (some centres not stated) returned a Retention_time of 2.41 min.

On to `Cc1cn([C@H]2CCCN(Cc3cccc(Oc4cccc(Cl)c4)c3F)C2)c(=O)[nH]c1=O`, for which the IC50 in data set [2] stood at 86 nM. Besides, the Retention_time in data set [1] is reported as 2 min. For the compound `Cc1c(CN2CCC[C@H](n3cc(C)c(=O)[nH]c3=O)C2)cccc1Oc1cc(F)cc(Cl)c1`, in data set [2], the IC50 is 9260 nM. Also, the Retention_time in data set [1] is 2.3 min. On to `CCCc1c(CN2CCC[C@H](n3cc(C)c(=O)[nH]c3=O)C2)cccc1Oc1cc(F)cc(Cl)c1`, for which, in data set [2], the IC50 worked out at 67400 nM. Also, the Retention_time in data set [1] is reported as 2.5 min. Take `CCC(O)c1ccc(Br)c(Oc2cccc(Cl)c2)c1OC` (configuration not stated): the Retention_time in data set [1] worked out at 3.27 min. Still for that read-out and setting: to `Cc1cn([C@H]2CCCN(C(CC(C)C)c3ccc(C#N)c(Oc4cccc(Cl)c4)c3F)C2)c(=O)[nH]c1=O` (some centres not stated) belongs 2.62 min. In the case of `Cc1cn([C@H]2CCCN(Cc3cccc(Oc4cccc(Cl)c4)c3)C2)c(=O)[nH]c1=O`, the 50% inhibitory concentration (IC50) in data set [2] was found to be 1170 nM. The compound `CCC(c1ccc(C(=O)O)c(Oc2cccc(Cl)c2)c1OC)N1CCC[C@H](n2cc(C)c(=O)[nH]c2=O)C1` (some centres not stated) came in with a Retention_time in data set [1] of 2.29 min. On the same count and under the same terms, to `O=Cc1cccc(Oc2cccc(Cl)c2)c1F` belongs 2.88 min.

Take `Cc1cn([C@H]2CCCN(Cc3cccc(Oc4cc(F)cc(Cl)c4)c3)C2)c(=O)[nH]c1=O`: in data set [2], the IC50 turned out to be 2060 nM.

`Cc1cn([C@H]2CCCN(C(CC(C)C)c3ccc(C(=O)O)c(Oc4cccc(Cl)c4)c3F)C2)c(=O)[nH]c1=O` (some centres not stated) displayed a Retention_time in data set [1] of 1.99 min. On to `COc1c(CN2CCC[C@H](n3cc(C)c(=O)[nH]c3=O)C2)cccc1Oc1cc(F)cc(Cl)c1`, for which, in data set [2], the IC50 worked out at 474 nM. The compound further registered a Retention_time in data set [1] of 3 min. Turning to `O=Cc1cccc(O)c1F`, the Retention_time in data set [1] is reported as 1.23 min.
